Results as given in patent US20200289554A1, “BIOORTHOGONAL COMPOUNDS COMPRISING A PROPARGYL GROUP FOR TREATING CANCER” (THE UNIVERSITY COURT OF THE UNIVERSITY OF EDINBURGH, priority 2016, published 2020).
Blank lines part the entries; values can stand above or below the compound they belong to.

Key:
[1] = test system: BxPC3 cells; assay: Prodrug safety dose-response cell viability (PrestoBlue), BxPC3; assay type: cell-based; details: Homo sapiens, BXPC-3, 120 h, 5 days, no catalyst
Description: (§1) These cell lines were selected as these are primary malignancies against which the parental drugs are currently prescribed.
(§2) The toxicities of each active agent and prodrugs were compared by performing dose-response studies. […] Cell viability was analysed by fluoresce intensity (λex=540 nm; λem=590 nm) after 60-90 min incubation with PrestoBlue™ Reagent (Life Technologies).

[2] = test system: HCT116 cells; assay: Prodrug safety dose-response cell viability (PrestoBlue), HCT116; assay type: cell-based; details: Homo sapiens, HCT-116, 120 h, 5 days, no catalyst
Description: as §1, §2

[3] = test system: BxPC3 cells; assay: BOOM conversion: prodrug + Pd0-resins in cell culture, cell viability, BxPC3; assay type: cell-based, human; details: Pd0-resin 1 mg/mL, 3 μM prodrug
Description: (§3) Cell viabilities for each prodrug provided as a combination with palladium is presented in FIG. 16 in the right of each set of two bars. Data for prodrug in the absence of palladium catalyst is also provided (the left bar of each set of two bars) for comparison along with negative controls (from left to right: DMSO, Pd^0 and 5FU). Cells were incubated in tissue culture media containing 0.1% (v/v) DMSO and: Pd^0-resins (1 mg/mL, negative control); 3 μM (for BxPC3 cells) or 30 μM (for HCT116 cells) of prodrug (negative control); and Pd^0-resins (1 mg/mL)+3 μM (BxPC3) or 30 μM (HCT116) of each prodrug (BOOM reaction assay). […]
(§4) Following 5 days treatment, cells were incubated with PrestoBlue™ Cell Viability Reagent (Life Technologies) for 90 min. Fluorescence intensity values were related to the untreated cells (100% cell viability). […]
(§5) The toxigenic effect as a result of in situ generation of parental drug in cell culture was determined by incubating all cells in tissue culture media containing 0.1% (v/v) DMSO and a) Pd^0, Au, or Pd/Au-resin (1 mg/mL for all cells tested, negative control); b) prodrug (negative control); or c) Pd^0, Au, or Pd/Au-resin (1 mg/mL for all cells)+prodrug (reaction assay). […]
(§6) A dose response study was performed for each cell line keeping the quantity of Pd^0 resin constant (0.8 mg/mL for U87G and 1 mg/mL for the rest of cell lines). […]

[4] = test system: HCT116 cells; assay: BOOM conversion: prodrug + Pd0-resins in cell culture, cell viability, HCT116; assay type: cell-based, human; details: Pd0-resin 1 mg/mL, 30 μM prodrug
Description: as §3, §4, §5, §6

[5] = test system: A549 cells; assay: Prodrug safety dose-response cell viability (PrestoBlue), A549; assay type: cell-based; details: Homo sapiens, 120 h, 5 days, no catalyst
Description: as §1, §2

[6] = test system: T98 cells; assay: Prodrug safety dose-response cell viability (PrestoBlue), T98; assay type: cell-based; details: Homo sapiens, 120 h, 5 days, no catalyst
Description: as §1, §2

[7] = test system: DU145 cells; assay: Prodrug safety dose-response cell viability (PrestoBlue), DU145; assay type: cell-based; details: Homo sapiens, DU-145, 120 h, 5 days, no catalyst
Description: as §1, §2

[8] = test system: A2780 cells; assay: Prodrug safety dose-response cell viability (PrestoBlue), A2780; assay type: cell-based; details: Homo sapiens, 120 h, 5 days, no catalyst
Description: as §1, §2

[9] = test system: U87G cells; assay: Prodrug safety dose-response cell viability (PrestoBlue), U87G; assay type: cell-based, human; details: Homo sapiens, 120 h, read-out: EC50 (cell viability)
Description: as §1, §2

[10] = test system: U87G cells; assay: BOOM conversion: prodrug + Pd0-resins in cell culture, cell viability, U87G; assay type: cell-based, human; details: Pd0-resin, SN-38 prodrug
Description: Following 5 days treatment, cells were incubated with PrestoBlue™ Cell Viability Reagent (Life Technologies) for 60-90 min. Fluorescence intensity values were related to the untreated cells (100% cell viability). […] Cells incubated in 0.1% (v/v) DMSO in media were used as untreated cell control.
The toxigenic effect as a result of in situ generation of parental drug in cell culture was determined by incubating all cells in tissue culture media containing 0.1% (v/v) DMSO and a) Pd^0, Au, or Pd/Au-resin (1 mg/mL for all cells tested, negative control); b) prodrug (negative control); or c) Pd^0, Au, or Pd/Au-resin (1 mg/mL for all cells)+prodrug (reaction assay). Cells incubated in 0.1% (v/v) DMSO in media was used as an untreated cell reference standard (100% viability). A PrestoBlue® cell viability assay as described above was carried out and fluorescent intensities compared to the untreated cell control.
(§7) A dose response study was performed for each cell line keeping the quantity of Pd^0 resin constant (0.8 mg/mL for U87G and 1 mg/mL for the rest of cell lines). […] Fluorescence intensity values (detected using a PerkinElmer EnVision 2101 multilabel reader with excitation filter at 540 nm and emissions filter at 590 nm) were determined relative to the untreated cell control.

[11] = test system: MiaPaCa2 cells; assay: Prodrug safety dose-response cell viability (PrestoBlue), MiaPaCa2; assay type: cell-based, human; details: relative to Gemcitabine
Description: as §1, §2

[12] = test system: MiaPaCa2 cells; assay: BOOM conversion: prodrug + Pd0-resins in cell culture, cell viability, MiaPaCa2; assay type: cell-based, human
Description: Cell viabilities for each prodrug provided as a combination with palladium is presented in FIG. 10 in the right of each set of two bars. Data for prodrug in the absence of palladium catalyst is also provided (the left bar of each set of two bars) for comparison along with negative controls (from left to right: DMSO, Pd^0 and Gemcitabine). Cells were incubated in tissue culture media containing 0.1% (v/v) DMSO and: Pd^0-resins (1 mg/mL, negative control); 0.03 μM of each prodrug (negative control); and Pd^0-resins (1 mg/mL)+0.03 μM of each prodrug (BOOM reaction assay). Cells incubated in 0.1% (v/v) DMSO in media were used as untreated cell control.
Following 5 days treatment, cells were incubated with PrestoBlue™ Cell Viability Reagent (Life Technologies) for 90 min. Fluorescence intensity values were related to the untreated cells (100% cell viability). Data are provided in FIG. 11 for cells incubated in tissue culture media containing 0.1% (v/v) DMSO and: Pd^0-resins (1 mg/mL, negative control); 0.003-0.3 μM of pPOBC-Gem (negative control); 0.003-0.3 μM of Gemcitabine (positive control); and Pd^0-resin (1 mg/mL)+pPOBC-Gem (BOOM reaction assay). Cells incubated in 0.1% (v/v) DMSO in media were used as untreated cell control.
as §5, with “assay). Cells incubated in 0.1% (v/v) DMSO in media was used as an untreated cell reference standard (100% viability).” for “assay).”
as §7

Structure (SMILES): O=c1[nH]cc(F)c(=O)[nH]1 [5FU, 5-fluorouracil, reference compound]
EC50 [1]: 140 nM | EC50 [2]: 1500 nM

Structure (SMILES): C#CCOc1ncc(F)c(OCC#C)n1 [Bis-Pro-5FU, 2,4-bispropargyl-5-fluorouracil]
EC50 [1]: > 100000 nM | EC50 [2]: > 100000 nM | toxigenic effect of prodrug + Pd0 resins [3]: strong toxigenic effect | toxigenic effect of prodrug + Pd0 resins [4]: strong toxigenic effect

Structure (SMILES): COc1cccc2c1C(=O)c1c(O)c3c(c(O)c1C2=O)C[C@@](O)(C(=O)CO)C[C@@H]3O[C@H]1C[C@H](N)[C@H](O)[C@H](C)O1 [Doxorubicin, reference compound]
EC50 [5]: 105 nM | EC50 [6]: 320 nM | EC50 [7]: 23 nM

Structure (SMILES): O=C(c1cc(Cc2n[nH]c(=O)c3ccccc23)ccc1F)N1CCN(C(=O)C2CC2)CC1 [Olaparib, reference compound]
EC50 [8]: 1870 nM

Structure (SMILES): C#CCOc1nnc(Cc2ccc(F)c(C(=O)N3CCN(C(=O)C4CC4)CC3)c2)c2ccccc12 [Prop-Olap, 4-[(3-[(4-cyclopropylcarbonyl)piperazin-4-yl]carbonyl)-4-fluorophenyl]methyl-phthalazin-1-oxypropargyl]
EC50 [8]: > 100000 nM

Structure (SMILES): C#CCOc1cccc(OCC#C)c1COc1ccc2nc3c(c(CC)c2c1)Cn1c-3cc2c(c1=O)COC(=O)[C@]2(O)CC [di-oPOB-SN-38, (S)-9-((2,6-bis(prop-2-yn-1-yloxy)benzyl)oxy)-4,11-diethyl-4-hydroxy-1,12-dihydro-14H-pyrano[3′,4′:6,7]indolizino[1,2-b]quinoline-3,14(4H)-dione]
EC50 [9]: 3150 nM | toxigenic effect of prodrug + Pd0 resins [10]: strong toxigenic effect

EC50 ([12]; Homo sapiens, MIA PaCa-2, 120 h, prodrug in combination with Pd0-resins 1 mg/mL, 5 days, read-out: EC50, prodrug + Pd-resins): 226 nM
Structure (SMILES): C#CCOc1ccc(COC(=O)Nc2ccn(C3OC(CO)C(O)C3(F)F)c(=O)n2)cc1 (stereo not shown) [pPOBC-Gem, 4-proparglyoxybenzylcarbamoyl Gemcitabine]
reduction in the cytotoxic effect relative the parent active agent [11]: 27 fold | toxigenic effect of prodrug + Pd0 resins ([12]; Pd0-resin 1 mg/mL, 0.03 μM Gemcitabine prodrugs): strong toxigenic effect
